In patent publication US6093723A, “4-substituted beta-carbolines and analogs thereof” (Boehringer Ingelheim Pharmaceuticals, Inc., priority 1997, dated 2000):
Like-named read-outs stand apart in the source and are kept apart here.

What was measured:
[1] = tested on: Ca^+2 influx in Jurkat cells (clone E6-1); experiment: Calcium influx assay (thapsigargin-stimulated, Fluo-3); assay type: cell-based; details: Homo sapiens; Jurkat cells clone E6-1, thapsigargin 100 nM, 10 min preincubation
Method: Jurkat cells (clone E6-1) are pelleted by centrifugation, washed twice, and resuspended in RPMI 1640 containing, […], 1 % fetal calf serum, 3 μM Fluo-3-AM, 13.5 μl/ml Pluronic F 127 (Molecular Probes) and incubated for 1 hour at 37° C. The loaded cells are washed twice in Hanks Balanced Salt Solution containing 10 mM HEPES. The cells are resuspended in HBSS containing 10 mM HEPES, and dispensed into 96-well Dynatech black microtiter plates at 2×10^5 cells/well. The cells are preincubated with compounds for 10 minutes at room temperature. Baseline fluorescence of unstimulated cells is measured using an SLT fluorescent microtiter plate reader with an excitation wavelength of 495 nm and emission wavelength of 538 nm. Thapsigargin is then added to a final concentration of 100 nM. Following a 5 minute incubation, fluorescence of thapsigargin treated cells is measured. Delta fluorescence values are determined by subtracting baseline fluorescence values from thapsigargin induced fluorescence values.

[2] = tested on: IL-2 production in CD3+/CD4+ cells; experiment: IL-2 production assay, Protocol A (ionomycin and PMA as stimuli); assay type: cell-based; details: human CD3+/CD4+ cells, ionomycin 1 μg/ml and PMA 10 ng/ml, 16 hr
Method: Protocol A (ionomycin and […] as stimuli)
Human peripheral blood is obtained from healthy donors by venipuncture and the mononuclear cell fraction is prepared by centrifugation on Ficoll Hypaque (Phamacia) density gradients. Contaminating red blood cells are lysed and the CD3+/CD4+ cells are purified using immunoaffinity columns (R&D Systems or CellPro). The cells are resuspended and dispensed in 96 well microtiter plates. Test compounds are added to the cells approximately 15 minutes prior to stimulation with ionomycin (1 μg/ml) and PMA (10 ng/ml). The final volume of the assay is 100 μL. Following a 16 hr incubation at 37° C., the cells are pelleted by centrifugation, and the supernatants are collected and stored at -70° C. until assayed for IL-2 using a commercial ELISA kit (Genzyme).

[3] = tested on: IL-2 production in T lymphocytes (CD3+/CD4+ cells); experiment: IL-2 production assay, Protocol B (antiCD3/antiCD28 as stimuli); assay type: cell-based; details: T-lymphocyte; human T lymphocytes, anti-CD3/anti-CD28 and goat anti-mouse coated beads, 16 hour
Method: Protocol B (antiCD3/antiCD28 as stimuli)
Human peripheral blood is obtained from healthy donors by venipuncture and the mononuclear cell fraction is prepared by centrifugation on Ficoll Hypaque (Phamacia) density gradients. Contaminating red blood cells are lysed and the CD3+/CD4+ cells are purified using immunoaffinity columns (R&D Systems or CellPro). The T lymphocytes are plated at 1-1.5×10^5 cells/well in a 96 well microtiter plate, and incubated with serial dilutions of compounds for 20 minutes at 37° C. The T cells are activated by the addition of 0.6 ng/ml anti-CD3 (Immunotech), 500 ng/ml anti-CD28 (Biodesign) and 2×10^5 goat anti-mouse coated beads (Dynal). The final volume of the assay is 200 μl. Following a 16 hour incubation at 37° C., the cells are pelleted, and the supernatants are removed and collected and stored at -70° C. until assayed for interleukin-2 using a commercial ELISA kit (R&D Systems).

[4] = tested on: allogeneic cell transplant response (T-cell-mediated immune response, popliteal lymph node); experiment: Allogeneic cell transplant response in mice (popliteal lymph node weight); assay type: in vivo, mice (DBA donors, C57B1/6 recipients); details: dosed one hour prior to cell injection and daily thereafter, ~four days
Text: Allogeneic Cell Transplant Response in Mice
The ability of cells to recognize other cells from self or from another genetically different individual (non-self) is an important property in maintaining the integrity of tissue and organ structure. The allogeneic cell transplant response is therefore an important model for studies of transplant rejection. This T-cell-mediated immune response can be induced in adult mice by the injection of lymphocytes from an histoincompatible mouse strain. This response is characterized by T cell proliferation which is limited to the popliteal lymph node that receives drainage from the footpad area. No in vitro system exists that can exactly duplicate completely this in vivo response. The assay is commonly used to evaluate new and novel potential immunosuppressive molecules.
Experiments are conducted using male or female mice (20-26 grams). Any histoincompatible mouse strains suffice for donor and recipient populations. Typically DBA mice are used as donors and C57B1/6 mice are used as recipients. A minimum of 1 week stabilization and conditioning period is usually required before use of the mice. Each study utilizes approximately 36 recipient mice divided into groups of 6.
Donor mice are sacrificed by CO2 asphyxiation and spleens are removed and a cell suspension is prepared. The cell suspension (1.0×10^7/metatarsal in 0.05 ml) is injected I.D. into the dorsal metatarsal skin of recipient mice. Four days later, the animals are sacrificed by CO2 asphyxiation and the popliteal nodes are removed and weighed. Groups of mice receiving putative immunosuppressive agents are dosed subcutaneously,intraperitoneally or orally one hour prior to cell injection and daily thereafter. The tests last approximately four days. The assay involves no footpad swelling and only a moderate increase in the size of the popliteal lymph node. Student's t test is used to determine significant differences between popliteal lymph nodes of groups of untreated mice and those mice treated with putative immunosuppressive agents.

[5] = tested on: IL-2 promoter; experiment: IL-2 promoter assay (luciferase reporter in Jurkat cells); assay type: cell-based; details: Homo sapiens
Text: All the known regulatory features of IL-2 gene are contained within a ~300 bp sequence immediately upstream of the open reading frame. […] The resulting construct, pIL2P-luc, and a vector containing a neomycin resistance gene, pcDNA/Neo (Invitrogen), are linearized and stably transfected into Jurkat cells (a human T cell line) by electroporation.
For screening compounds, the cells are pelleted by centrifugation, washed once with PBS, resuspended in RPMI (phenol red-free) containing 5% FBS, and dispensed into 96-well, white microtiter plates (Packard) at 50,000 cells/well. The cells are pre-incubated with compounds (1 μg/ml) for 15 min prior to addition of ionomycin (1 μg/ml) and PMA (10 ng/ml) in a final volume of 100 μl. Following a 5 hr incubation at 37° C. in a humidified incubator, 100 μl of Luc-Lite lysis buffer/luciferase assay buffer (Promega) is added and luminescence measured using a Packard TopCount scintillation counter/luminometer.

[6] = Jurkat luciferase reporter cells, ionomycin 1 μg/ml and PMA 10 ng/ml, 5 hr, read-out: IL-2 PROMOTER IC50

IC50 [1] [µM] | IC50 [2] [µM] | IC50 [3] [µM] | IC50 [5, 6] [µM] | SMILES | ALLOGENEIC CELL TRANSPLANT % ([4]; 0.1 mg/kg) [%] | ALLOGENEIC CELL TRANSPLANT % ([4]; 1 mg/kg) [%] | IC50 ([5]; Jurkat, read-out: inhibition of luciferase activity, IC50) [µM]
4.6 | 27 | > 25 |  | COc1ccc(-c2cncc3c2c2ccccc2n3Cc2ccccc2)cc1 [Compound 10] |  |  | 
1.2 | 0.3 | 4.5 |  | CCOc1ccc(-c2cncc3[nH]c4ccccc4c23)cc1 [Compound 12] |  | 49 | 
14 | 9.2 | > 25 | 3.2 | COc1ccc(-c2cncc3[nH]c4ccc(Cl)cc4c23)cc1 [Compound 6] |  |  | 
0.7 | 5 | 9.8 | 3 | COc1cccc(-c2cncc3[nH]c4ccccc4c23)c1 [Compound 7] |  | 49 | 
2.2 | > 20 | 7.4 |  | COc1ccc(-c2cncc3c2c2ccccc2n3C)cc1 [Compound 8] |  |  | 
0.5 | 0.8 | 8.1 |  | Clc1ccc(-c2cncc3[nH]c4ccccc4c23)cc1 [Compound 13] |  |  | 
0.3 | 1 | 4.2 | 1.09 | COc1ccc(-c2cncc3[nH]c4ccccc4c23)cc1 [Compound 5, 4-(p-Methoxyphenyl)-β-carboline] |  | 60 | 
0.3 | 2 | 6.2 | 1.5 | Cc1ccc(-c2cncc3[nH]c4ccccc4c23)cc1 [Compound 1, 4-(p-Methylphenyl)-β-carboline] |  | 38 | 

The next lines start with the compound.

SMILES | IC50 [1] [µM] | IC50 [2] [µM] | IC50 [3] [µM] | IC50 [5, 6] [µM] | ALLOGENEIC CELL TRANSPLANT % ([4]; 0.1 mg/kg) [%] | ALLOGENEIC CELL TRANSPLANT % ([4]; 1 mg/kg) [%] | IC50 ([5]; Jurkat, read-out: inhibition of luciferase activity, IC50) [µM]
FC(F)(F)c1ccc(-c2cncc3[nH]c4ccccc4c23)cc1 [Compound 4, 4-(p-Trifluoromethylphenyl)-β-carboline] | 0.5 | 0.3 | 3.4 | 0.23 | 38 |  | 
c1ccc(-c2cncc3[nH]c4ccccc4c23)cc1 [Compound 2, 4-Phenyl-β-carboline] | 2.2 | 14 |  |  |  |  | 
C=CC[C@@H]1/C=C(\C)C[C@H](C)C[C@H](OC)[C@H]2O[C@@](O)(C(=O)C(=O)N3CCCC[C@H]3C(=O)O[C@H](/C(C)=C/[C@@H]3CC[C@@H](O)[C@H](OC)C3)[C@H](C)[C@@H](O)CC1=O)[C@H](C)C[C@@H]2OC [FK506, reference compound] |  |  |  |  |  |  | 0.0003
c1cncc(-c2cncc3[nH]c4ccccc4c23)c1 [Compound 14] | 29 | 36 | 22 |  |  |  | 
CCCc1cncc2[nH]c3ccccc3c12 [Compound 3, 4-Propyl-β-carboline] | 17.2 | 38 | 21 |  |  |  | 
COc1ccccc1-c1cncc2[nH]c3ccccc3c12 [Compound 11] | 6.4 | 3 | 20 |  |  |  | 
Cc1cccc(-c2cncc3[nH]c4ccccc4c23)c1 [Compound 9] | 1.1 | 5 | > 25 |  |  |  | 
